Experimental data reported in patent US11584714B2 (priority 2018, dated 2023).
Counter-ions that a name gives are not always drawn. Like-named read-outs stand apart in the source and are kept apart here.

Columns and labels:
Type in all cases: biochemical
MASP-2 (CCP1-CCP2-SP) = MASP-2 (CCP1-CCP2-SP) (Homo sapiens (Human), UniProt O00187); assay: biochemical; settings: for MASP-2 vs. thrombin selectivity: selectivity for MASP-2 inhibition versus thrombin
mMASP-2 = mMASP-2 (Mus musculus (Mouse), UniProt Q91WP0); assay: Enzymatic inhibition of mMASP-2; settings: read-out: mMASP-2 Ki
Sequence of mMASP-2 (Q91WP0 20-685): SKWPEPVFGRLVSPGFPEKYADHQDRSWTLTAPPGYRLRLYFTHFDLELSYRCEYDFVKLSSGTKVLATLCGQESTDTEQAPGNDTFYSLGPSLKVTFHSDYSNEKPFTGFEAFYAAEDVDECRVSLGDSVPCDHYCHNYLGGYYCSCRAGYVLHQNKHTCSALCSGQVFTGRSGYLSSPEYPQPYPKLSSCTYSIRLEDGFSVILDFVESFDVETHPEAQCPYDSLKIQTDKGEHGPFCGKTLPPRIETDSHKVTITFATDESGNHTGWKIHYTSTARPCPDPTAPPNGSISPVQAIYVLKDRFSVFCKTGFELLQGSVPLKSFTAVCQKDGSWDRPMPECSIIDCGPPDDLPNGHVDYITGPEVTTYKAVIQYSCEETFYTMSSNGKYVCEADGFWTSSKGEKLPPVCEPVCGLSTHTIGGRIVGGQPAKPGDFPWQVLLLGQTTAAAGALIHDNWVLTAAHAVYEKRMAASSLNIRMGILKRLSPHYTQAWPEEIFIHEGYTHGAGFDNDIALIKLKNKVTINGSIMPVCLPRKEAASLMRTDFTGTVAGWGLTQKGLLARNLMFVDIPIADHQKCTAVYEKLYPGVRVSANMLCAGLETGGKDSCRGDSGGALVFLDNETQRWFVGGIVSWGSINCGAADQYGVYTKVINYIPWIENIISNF

human α-thrombin = human α-thrombin (Homo sapiens (Human), UniProt P00734); assay: Enzymatic assay for thrombin (Boc-VPR-AMC substrate)

Sequence of MASP-2 (CCP1-CCP2-SP) (O00187 445-686): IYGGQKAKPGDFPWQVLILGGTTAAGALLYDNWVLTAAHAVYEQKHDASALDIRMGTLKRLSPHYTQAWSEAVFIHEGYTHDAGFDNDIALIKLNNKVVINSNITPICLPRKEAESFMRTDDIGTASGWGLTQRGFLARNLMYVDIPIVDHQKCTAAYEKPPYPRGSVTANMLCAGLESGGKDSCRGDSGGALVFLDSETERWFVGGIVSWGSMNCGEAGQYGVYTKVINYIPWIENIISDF

SMILES | Ki (MASP-2 (CCP1-CCP2-SP)) [µM] | MASP-2 vs. thrombin selectivity (MASP-2 (CCP1-CCP2-SP)) | Ki (mMASP-2) [µM] | Ki (human α-thrombin; read-out: Thrombin Ki) [µM] | Ki (MASP-2 (CCP1-CCP2-SP); read-out: MASP-2 Ki) [µM] | Ki (human α-thrombin; Thrombin Ki (μM)) [µM]
C[C@H](NC(=O)[C@H]1C[C@H](c2ccccc2)CN1)C(=O)NCc1ccc(C(=N)NC(=O)OCC(F)(F)F)cc1 [compound 1305, 2,2,2-Trifluoroethyl (imino(4-(((S)-2-((2R,4R)-4-phenylpyrrolidine-2-carboxamido)propanamido)methyl)phenyl)methyl)carbamate] | 0.5 to 2.5 | ** (≥5.0 to <25-fold) | < 0.5 | > 25 |  | 
C[C@H](NC(=O)[C@H]1C[C@H](Cc2ccccc2)CN1)C(=O)NCc1ccc(C(=N)N)cc1 [compound 1306, (2R,4S)-4-Benzyl-N-((S)-1-((4-carbamimidoylbenzyl)amino)-1-oxopropan-2-yl)pyrrolidine-2-carboxamide Dihydrochloride] |  | * (≥1.0 to <5.0-fold) | < 0.5 | < 0.5 | < 0.5 | 
Cc1cc(Cl)cc(CNC(=O)[C@H](C)NC(=O)[C@H]2C[C@H](Cc3ccccc3)CN2)c1O [compound 1307, (2R,4S)-4-Benzyl-N-((S)-1-((5-chloro-2-hydroxy-3-methylbenzyl)amino)-1-oxopropan-2-yl)pyrrolidine-2-carboxamide Hydrochloride] |  | **** (≥100-fold) | < 0.5 | > 25 | < 0.5 | 
Cc1nc(N)ccc1CNC(=O)[C@H](C)NC(=O)[C@H]1C[C@H](c2ccccc2)CCN1 [compound 1308, (2R,4R)—N—((S)-1-(((6-Amino-2-methylpyridin-3-yl)methyl)amino)-1-oxopropan-2-yl)-4-phenylpiperidine-2-carboxamide Dihydrochloride] | 0.5 to 2.5 | ** (≥5.0 to <25-fold) | 0.5 to 2.5 |  |  | 10 to 25
Cc1nc(N)ccc1CNC(=O)[C@H](C)NC(=O)[C@H]1CN(c2cccc3ccccc23)CCN1 [compound 1309, (R)—N—((S)-1-(((6-Amino-2-methylpyridin-3-yl)methyl)amino)-1-oxopropan-2-yl)-4-(naphthalen-1-yl)piperazine-2-carboxamide Dihydrochloride] |  | **** (≥100-fold) | < 0.5 | > 25 | < 0.5 | 
Cc1nc(N)ccc1CNC(=O)[C@H](C)NC(=O)[C@H]1C[C@@H](Oc2ccccc2)CN1 [compound 1310, (2R,4R)—N—((S)-1-(((6-Amino-2-methylpyridin-3-yl)methyl)amino)-1-oxopropan-2-yl)-4-phenoxypyrrolidine-2-carboxamide Dihydrochloride] | 0.5 to 2.5 | *** (≥25 to <100-fold) | > 25 | > 25 |  | 
C[C@H](NC(=O)[C@H]1C[C@H](c2ccccc2)CN1)C(=O)NCc1cnc2[nH]ccc2c1 [compound 1311, (2R,4R)—N—((S)-1-(((1H-Pyrrolo[2,3-b]pyridin-5-yl)methyl)amino)-1-oxopropan-2-yl)-4-phenylpyrrolidine-2-carboxamide Dihydrochloride] | 2.5 to 10 | * (≥1.0 to <5.0-fold) | 2.5 to 10 | > 25 |  | 
C[C@H](NC(=O)[C@@H](CCc1ccccc1)NCCCc1cccc(O)c1)C(=O)NCc1ccc(C(=N)N)cc1 [compound 1312, (R)—N—((S)-1-((4-Carbamimidoylbenzyl)amino)-1-oxopropan-2-yl)-2-((3-(3-hydroxyphenyl)propyl)amino)-4-phenylbutanamide Di-trifluoroacetate salt] |  | * (≥1.0 to <5.0-fold) | < 0.5 | < 0.5 | < 0.5 | 
C[C@H](NC(=O)[C@H](N)CCc1ccccc1)C(=O)NCc1cc(C#N)ccc1O [compound 1314, (R)-2-Amino-N—((S)-1-((5-cyano-2-hydroxybenzyl)amino)-1-oxopropan-2-yl)-4-phenylbutanamide Trifluoroacetate salt] | 10 to 25 | * (≥1.0 to <5.0-fold) | > 25 | > 25 |  | 
CC(C)c1cccc([C@H]2CN[C@@H](C(=O)N[C@@H](C)C(=O)NCc3ccc(C(=N)N)cc3)C2)c1 [compound 1316, (2R,4S)—N—((S)-1-((4-Carbamimidoylbenzyl)amino)-1-oxopropan-2-yl)-4-(3-isopropylphenyl)pyrrolidine-2-carboxamide Dihydrochloride] |  | *** (≥25 to <100-fold) | < 0.5 |  | < 0.5 | 0.5 to 2.5
Cc1cc(Cl)cc(CNC(=O)[C@H](C)NC(=O)[C@H]2CN(c3cccc4ccccc34)CCN2)c1O [compound 1317, (R)—N—((S)-1-((5-Chloro-2-hydroxy-3-methylbenzyl)amino)-1-oxopropan-2-yI)-4-(naphthalen-1-yl)piperazine-2-carboxamide Hydrochloride] |  |  | 0.5 to 2.5 | > 25 | < 0.5 | 
Cc1nc(N)ccc1CNC(=O)[C@H](C)NC(=O)[C@@H](CCc1ccccc1)NCCCc1cccc(O)c1 [compound 1319, (R)—N—((S)-1-(((6-Amino-2-methylpyridin-3-yl)methyl)amino)-1-oxopropan-2-yl)-2-((3-(3-hydroxyphenyl)propyl)amino)-4-phenylbutanamide Dihydrochloride salt] |  | ** (≥5.0 to <25-fold) | 10 to 25 |  | < 0.5 | 2.5 to 10
